Assay results taken from patent publication EP0808325B1, “[…] […] SERIES FOR […] GABA RECEPTOR” (priority 1994, dated 1996).

Assays:
[1] = tested on: mice; assay: light/dark transition test; assay type: in vivo, N.I.H. Swiss-Webster mice; details: IP
From the text: The light/dark transition test (Crawley and Goodwin, Pharmacol. Biochem. Behav. 13:67-70 1980) is based on the observation that rodents naturally tend to explore novel environments, but open, brightly lit arenas are aversive to the rodents and inhibit exploratory behavior (Christmas and Maxwell, Neuropharmacol. 9:17-29 1970; File, J. Neurosci. Meth. 2:219-238 1980).
Male N.I.H. Swiss-Webster mice (Harlan, Harlan, Indianapolis, IN) weighing 15-20 g were housed four per cage in polyethylene cages with sawdust bedding. The colony room was environmentally controlled (22°C) with a 12 hr light/dark cycle (0600-1800 hr). Food and water were available ad libitum, except during testing. The experiments were run from 0700-1500 hr and groups were counterbalanced for time of day effects. Mice were only administered drug or vehicle once.
The method used was a modification of methods previously described (Wieland et al., Br. Res. 565:263-268 (1991)). The apparatus included two 2-compartment automated test chambers (Model RXYZCM16, Omnitech Electronics, Columbus, OH). The open compartment was connected to the enclosed compartment via a 7.5 x 7.5 cm passageway. The open compartment was brightly lit using a 200 W incandescent light bulb. The experimental room was kept dark. Interruptions of the infrared beams in either chamber were automatically recorded by being linked to a computer through a Digiscan Analyzer (Omnitech Electronics) and the data was analyzed using the Integrated Lab Animal Monitoring System (Omnitech Electronics).
N.I.H. Swiss-Webster mice were administered vehicle or test drug intraperitoneally (IP), 10 min later they were placed in the center of the lit compartment. The number of transitions between the lit and dark chambers, total activity in the lit chamber and the time spent in the lit chamber were measured during a 10 min test period.

[2] = tested on: mice; assay: elevated plus-maze; assay type: in vivo, N.I.H. Swiss-Webster mice
Outline: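 Male Swiss-Webster mice (15-20 g), dosed once with drug or vehicle, were placed on an elevated plus-maze 10 min post-injection for 5 min. Open-arm entries and open-arm time recorded, each as a percentage of total arm entries or time; center time excluded.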

[3] = tested on: maximal electroshock; assay: maximal electroshock test; assay type: in vivo, mice; details: Mus musculus, ip, 20% hydroxypropyl-β-cyclodextrin in water
From the text: The anticonvulsant tests are similar to that described above. […]

[4] = biological target: GR complex; assay: modulation of [35S]TBPS binding in rat cerebral cortex P2 homogenate; design: species or system Sprague-Dawley rats; IMAX: unit not given here
Outline: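 Rat (male Sprague-Dawley) cortical P2 homogenate, 0.5 mg protein, in 50 mM Na/K phosphate pH 7.4, 200 mM NaCl, incubated 90 min at 25° C with 2 nM [35S]TBPS plus GABA and (+)bicuculline, compounds added in DMSO. Filter-bound radioactivity counted; nonspecific binding defined with […].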

## CC(=O)[C@H]1CC[C@H]2[C@@H]3CC[C@H]4C[C@H](O)CC[C@]4(C)[C@H]3CC[C@]12C [3α-hydroxy-5α-pregnan-20-one, reference compound]
[1]; 10 & 20 mg/kg, compared to control groups
  activity: significant (p < 0.01) increases
[1]; at doses tested, versus control (Dunnett's t-test)
  number of transitions between the dark box and the light box: significantly increased
[2]; 10 mg/kg (p ≤ 0.01)
  time spent on the open-arms: significant increases
[2]; 20 mg/kg (p ≤ 0.05)
  entries into the open-arms: significant increase
[2]; IP, 50% hpbcd, 20 mg/kg
  % Control: 143.7%
[3]
  ED50: 28.6 mg/kg
[4]; concentration of compounds to inhibit 50% of control [35S]TBPS binding, 2 nM [35S]TBPS, 25°C, 90 minutes, no unit printed
  IC50: 37 nM
[4]; maximum inhibition of [35S]TBPS binding, I* = Inactive
  IMAX: 95
